“And” between values parts separate entries of the source, which are not always exact repeats. Identical values can stand only once. Like-named read-outs stand apart in the source and are kept apart here.
Legend:
[1] = tested on: B6-SJL mice; assay: Intraplantar 2% formaldehyde model, i.p. treatment; type: in vivo; details: for Time of significant reduction of pain-related behavioral score: vs vehicle/formaldehyde; for Area under the curve, phase I and phase II pain-related behavior: phase I 0–15 min, phase II 20–60 min
Method: The Intraplantar 2% formaldehyde model was carried out as previously described ([Paton et al., 2017]; [Sherwood et al., 2017]). The custom-made chamber (27.5 × 18.5 cm) sat on a glass surface with a 45° angle mirror underneath to capture the behaviors via a video camera. The mice were habituated to the test enclosure for 15 min before testing. The mice were given KOPr agonist or vehicle treatment via i.p. injection 5 min prior to the administration of 20 μL of formaldehyde (2% in PBS) or PBS alone via intraplantar (i.pl.) injection. The animals were recorded for 60 min. The methods of [Dubuisson and Dennis (1977)] were used to assess the pain-like behavior using a weight-bearing score. […] Scores were assessed every 5 s and averaged for every 5 min time period. For the area under the curve analysis, the two phases were separated out as follows: 0–15 min phase one nociceptive pain-related behavior; and 20–60 min phase two inflammatory pain-related behavior.

[2] = tested on: C57Bl/6J mice
[3] = tested on: rats; parameters: method as in Riley et al., 2014; details: ref Riley et al., 2014; cited from earlier work
[4] = tested on: hKOPr; assay: Bias factor, G-protein (cAMP) vs β-arrestin2, U50,488 as reference ligand; details: for Signaling bias in words: bias calculation relative to U50,488; for Bias factor: relative to U50,488, 1 balanced, >1 G-protein biased, <1 β-arrestin2 biased
[5] = tested on: B6-SJL mice; assay: Cumulative dose-response warm water tail-withdrawal assay; type: in vivo; details: cumulative s.c. doses; for ED50: Mus musculus, sc, 0.5 h, 50°C, latency 30 min post-injection
Method: (§1) On the 2 days prior to the test day, mice were restrained in transparent plastic tube restrainers (internal diameter 24 mm) for 5 min daily, to reduce restraint stress. Tail-withdrawal latencies were measured by immersing one-third of the distal portion of the tail in a warm water bath (50 ± 0.5°C) and the time to show the withdrawal response recorded. A maximum tail immersion cut-off of 10 s was used to avoid tissue damage and allow for repeated exposure to the thermal stimulus. On the day of the experiment, the baseline latency for each animal was measured by averaging three predrug tail-withdrawal latencies, with successive measurements taken at least 5 min apart. Following the experimental procedure, the percentage maximum possible effect (%MPE) was calculated for each animal at each time point by using the following formula:
(§2) %MPE=(testlatency-baselinelatency/10-baselinelatency)× 100
The cumulative dose-response effects were evaluated using a within animal design, as previously described ([Bohn et al., 2000]; [Paton et al., 2017]; [Sherwood et al., 2017]). Briefly, mice were given s.c. injections at increasing concentrations to create cumulative doses in a volume of 5 μL/g of weight into the scruff of the neck, the left flank and the right flank in sequence to avoid continuous injections into the same area. At 30 min post-injection, the tail-withdrawal latency was measured and the next cumulative dose administered immediately after. […] Non-linear regression analysis was used to determine potency [median effective dose (ED50)] and efficacy calculated by normalizing data to the prototype KOPr agonist U50,488 [maximum dose achieved (Emax)].

[6] = target: T1, hKOPr (Homo sapiens, UniProt P41145); assay: β-arrestin2 recruitment (PathHunter) in U2OS cells expressing β-arrestin2 and hKOPr; type: cell-based; parameters: host or cells: U2OS
Target sequence in this assay (P41145 whole entry): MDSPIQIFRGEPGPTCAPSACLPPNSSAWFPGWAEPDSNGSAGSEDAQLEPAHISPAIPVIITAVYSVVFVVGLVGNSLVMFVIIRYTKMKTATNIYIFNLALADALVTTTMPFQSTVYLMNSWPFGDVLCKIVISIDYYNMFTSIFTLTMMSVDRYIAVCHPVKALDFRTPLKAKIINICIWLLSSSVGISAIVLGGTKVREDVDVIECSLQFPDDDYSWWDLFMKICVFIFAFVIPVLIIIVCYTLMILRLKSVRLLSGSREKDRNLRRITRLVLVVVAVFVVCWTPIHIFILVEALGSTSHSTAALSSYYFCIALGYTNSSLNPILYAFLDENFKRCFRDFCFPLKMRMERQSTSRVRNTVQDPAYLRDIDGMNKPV
Target sequence in this assay (P32121 whole entry partner): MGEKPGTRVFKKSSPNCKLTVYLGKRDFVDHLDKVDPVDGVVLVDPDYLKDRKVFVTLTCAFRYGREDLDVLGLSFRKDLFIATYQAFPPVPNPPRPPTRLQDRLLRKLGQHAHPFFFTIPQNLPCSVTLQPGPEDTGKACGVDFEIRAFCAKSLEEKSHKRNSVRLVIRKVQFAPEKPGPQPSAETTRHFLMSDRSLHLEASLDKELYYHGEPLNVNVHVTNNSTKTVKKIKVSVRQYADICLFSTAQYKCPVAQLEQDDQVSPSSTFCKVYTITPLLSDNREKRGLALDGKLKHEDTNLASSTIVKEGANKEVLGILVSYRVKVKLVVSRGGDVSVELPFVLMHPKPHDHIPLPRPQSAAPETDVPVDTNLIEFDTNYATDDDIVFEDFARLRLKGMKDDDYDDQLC

[7] = tested on: Sprague–Dawley rats; parameters: method as in Riley et al., 2014; Mathew, 2019; details: 16-Bromo SalA 1 mg/kg; 16-Ethynyl SalA 0.3–2 mg/kg; ref Riley et al., 2014; Mathew, 2019; cited from earlier work
[8] = tested on: B6-SJL mice
[9] = tested on: B6-SJL mice; type: in vivo
[10] = target: T1, hKOPr; parameters: host or cells: CHO; details: cited from earlier work
Target sequence in this assay (P41145 whole entry): as the sequence (P41145 whole entry) above

[11] = tested on: C57Bl/6J mice; remark: listed apart in the source
[12] = tested on: B6-SJL mice; type: in vivo; remark: listed apart in the source
[13] = target: T1, hKOPr; assay: Inhibition of forskolin-induced cAMP accumulation (HitHunter) in CHO cells expressing hKOPr; type: cell-based; parameters: host or cells: CHO
Target sequence in this assay (P41145 whole entry): as above

[14] = tested on: B6-SJL mice; assay: Warm water tail-withdrawal assay, time course (duration of action); type: in vivo; details: 50°C, vs vehicle
Method: as §1, §2
To measure the duration of action, the tail-withdrawal latencies were measured over a time-course as previously described ([Simonson et al., 2015]; [Paton et al., 2017]). Following the baseline latency measurements, mice were given an i.p. injection of either KOPr agonist or vehicle and the latency to tail-withdrawal behavior determined at 5, 10, 15, 30, 45, 60, 90, and 120 min for each animal in a repeated measures design.

[15] = tested on: male NIH Swiss mice; details: mouse, in vivo; cited from earlier work
[16] = tested on: hKOPr; details: read-out: EC50 [35S]GTP-γ-S; cited from earlier work
[17] = tested on: B6-SJL mice; details: ref White et al. (2015), cited from earlier work
[18] = tested on: rats; details: ref Ewald et al., 2017; cited from earlier work
[19] = tested on: B6-SJL mice; parameters: method as in McCurdy et al. (2006); details: 2–4 mg/kg, 52°C, male Swiss mice; ref McCurdy et al. (2006); cited from earlier work
[20] = tested on: B6-SJL mice; details: cited from earlier work
[21] = SalA 2 mg/kg i.p., analogs 1–2 mg/kg i.p.

Compound | Time of significant reduction of pain-related behavioral score ([1]; 1 mg/kg i.p.) | Area under the curve, phase I and phase II pain-related behavior ([1]; 1 mg/kg i.p.) | Area under the curve, phase I and phase II pain-related behavior ([1]; 2 mg/kg i.p.) | Marbles buried vs vehicle ([2]; mouse, in vivo) | Drug-seeking in cocaine prime-induced reinstatement [3] | Signaling bias in words [4] | Bias factor [4] | ED50 [5] | Effect on spontaneous locomotor activity [7] | Number of head dips vs vehicle ([11]; mouse, in vivo) | Open arm entries vs vehicle ([11]; mouse, in vivo) | Time in open area vs vehicle ([11]; mouse, in vivo) | Duration of action, hot-plate ([12]; mouse, in vivo) | Inhibition of forskolin-induced cAMP accumulation Emax ± SEM [13] | Time of significant antinociceptive effect, tail-withdrawal ([14]; 1 mg/kg i.p.) | EC50 [16] | other results
C#Cc1occc1[C@@H]1C[C@]2(C)[C@H]3C(=O)[C@@H](OC(C)=O)C[C@@H](C(=O)OC)[C@]3(C)CC[C@H]2C(=O)O1 [16-Ethynyl SalA, 16-Ethynyl Salvinorin A] | 25 to 35 min | not 1 mg/kg | reduced the pain-related behavioral scores | did not alter the number of marbles buried | attenuated drug-seeking | balanced agonist | 1.0 | 1.54 mg/kg | did not have an effect | reduced | reduced | reduced | 30 min | 101 ± 1.79 | 10 to 15 min |  | Effect of nor-BNI pre-treatment on the AUC reduction ([1]; 2 mg/kg i.p., nor-BNI s.c. 24 h prior): nor-BNI significantly reversed the effect; Emax tail-withdrawal ([5]; normalized to U50,488): 171.0 ± 21.5%; EC50 [6]: 7.35 nM; Time of decreased latency to fall ([8]; B6-SJL, mouse, in vivo): 15 and 30; Area under the curve, phase I and II pain-related behavior ([9]; mouse, in vivo): reduced both phases of pain-related behavior; Fold increase in potency at KOPr compared to 16-Bromo SalA [10]: 2 fold; Antinociceptive effect compared at the 30 min time point, hot-plate ([12]; mouse, in vivo): greater antinociceptive effect than both SalA and 16-Bromo SalA; EC50 ([13]; HitHunter, CHO-hKOPr): 0.011 nM; Time of significant antinociceptive effect, tail-withdrawal ([14]; 2 mg/kg i.p.): 5 to 60 min
COC(=O)[C@@H]1C[C@H](OC(C)=O)C(=O)[C@H]2[C@@]1(C)CC[C@H]1C(=O)O[C@H](c3ccoc3)C[C@]21C [SalA, Salvinorin A, reference compound] |  |  |  |  |  |  |  |  |  |  |  |  |  |  |  | 2.1 ± 0.6 nM | Duration of disrupted climbing behavior [15]: 5 min; Marbles buried vs vehicle ([2]; SalA 2 mg/kg i.p., analogs 1–2 mg/kg i.p., 30 min): increase in the percentage of marble buried; Duration of motor incoordination, rotarod ([17]; 3 and 10 mg/kg, female and male C57BL/6J mice): up to 30 min; Time of significant motor incoordination (decreased latency to fall) ([8]; 2 mg/kg i.p., accelerating rotarod 4 to 40 rpm): 15 to 30 min; Area under the curve, phase I and II pain-related behavior ([9]; 2 mg/kg i.pl.): reduced both phases of pain-related behavior; Anxiogenic effects in the elevated plus maze [18]: has anxiogenic effects; Number of head dips vs vehicle [11, 21]: reduced; Open arm entries vs vehicle [11, 21]: reduced; Time in open area vs vehicle ([11]; SalA 2 mg/kg i.p., analogs 1–2 mg/kg i.p., 10 min after injection, 5 min test): reduced; Duration of action, hot-plate [19]: 10 min; Duration of action, hot-plate ([12]; 2 mg/kg i.p., 50°C hot-plate): 30 min; Duration of action, tail-withdrawal ([20]; 2–4 mg/kg, male Swiss mice, ref McCurdy et al. (2006)): 20 min; Duration of antinociceptive action, tail-withdrawal ([20]; authors' model, ref Paton et al., 2017): 30 min
COC(=O)[C@@H]1C[C@H](OC(=O)CSC#N)C(=O)[C@H]2[C@@]1(C)CC[C@H]1C(=O)O[C@H](c3ccoc3)C[C@]21C [RB-64] |  |  |  |  |  |  |  |  |  |  |  |  |  |  |  |  | Motor deficits, rotarod ([17]; C57BL/6J mice): did not cause any motor deficits
COC(=O)[C@@H]1C[C@H](OC(C)=O)C(=O)[C@H]2[C@@]1(C)CC[C@H]1C(=O)O[C@H](c3ccoc3Br)C[C@]21C [16-Bromo SalA, 16-Bromo Salvinorin A] | […] | did not show a significant reduction | did not show a significant reduction | did not alter the number of marbles buried | attenuated drug-seeking | G-protein biased | 7.7 G | 2.06 mg/kg | did not have an effect | did not have any effect | did not have any effect | did not have any effect | […] | 98.8 ± 1.84 | […] | […] | Time of significant reduction of pain-related behavioral score ([1]; 2 mg/kg i.p.): […]; Time of sedative effects (decreased latency to fall) ([8]; B6-SJL, mouse, in vivo): […]

Reference: publication PMC7385413 (Frontiers in Neuroscience, 2020)
